Laboratory results reported in patent publication EP2332528A1, “Substituted aromatic dicarbonic acid amides as medicaments” (Grünenthal GmbH, priority 2009, dated 2011).

Test system: vGLUT1- bzw. vGLUT2-Transporter
Test: Glutamate uptake in rat crude synaptic vesicles ([3H]-glutamate uptake)
Type: biochemical, Ratte
Details: for IC50: read-out: VGLUT (Ratte), IC50; for VGLUT (Ratte), Hemmung [%]: test concentration not given
Text: I. Funktionelle Untersuchung an den vGLUT1- bzw. vGLUT2-Transportern
Die agonistische bzw. antagonistische Wirkung der zu untersuchenden Verbindungen am vGLUT1- bzw. vGLUT2-Transporter der Spezies Ratte kann mit folgendem Assay bestimmt werden.
Glutamat-Uptake in Rattenvesikel ('rat crude synaptic vesicles')
Die Präparation von Vesikeln wurde aus Rattengehirn-Homogenaten (männlichen Ratten, Stamm Wistar SPF, 150-250 g Gewicht) durchgeführt gemäß Roseth et al. (1995) J. Neurochem. 65: 96-103, der sich auf Whittaker et al. (1964) Biochem J. 90, 293-303 und Fykse und Fonnum (1988) J. Neurochem. 50: 1237-1242 bezieht.
Hierzu wurden frisch entnommene Rattengehirne in 0,32 M Saccharose, 10 mM TRIS-maleat, 1 mM EGTA, pH 7,4 (10 ml/g Frischgewicht) mit einem Potter-Homogenisator (Fa. Braun/Melsungen; 5 Kolbenhübe bei 800 Upm) unter Eiskühlung homogenisiert und anschließend für 10 Minuten bei 3.000 g und 4°C zentrifugiert. Der resultierende Überstand wurde bei 20.000 g für 30 Minuten bei 4°C zentrifugiert. Das entstandene Pellet wurde dann im Verhältnis 1:3 mit 10 mM TRIS-maleate, 0,1 mM EGTA, pH 7,4 osmotisch geschockt und die Suspension bei 17000g für 30 min (4°C) zentrifugiert. Die im Überstand verbliebenen Vesikel wurden nun auf einen Dichtegradienten aus 0,6 M Saccharose in 10 mM TRIS-maleat, 1 mM EGTA, pH 7.4 und 0.4 M Saccharose in 10 mM TRIS-maleat, 1 mM EGTA, pH 7.4 geschichtet. Eine Ultrazentrifugation der Gradienten im Ausschwingrotor bei 65000g für 2h (4°C) schloss sich an. Die Vesikel-Fraktion wurde von der 0.4 M Saccharose-Bande isoliert und im Uptake-Versuch eingesetzt.
Die Substratlösung für den Uptake von [^3H]-Glutamat bestand aus ATP (neutralisiert mit Trisma base; 2 mM im Endansatz), Glutamat (0.5 mM im Endansatz) und ^3H-Glutamat (0.5 µCi im Endansatz). In 14 ml-Reagiergefäßen (Sarstedt, Artikel-Nr.: 798438) wurden jeweils 0,3 ml Gesamtvolumina (n=2/Probe) pipettiert in der folgenden Reihenfolge: 1.) 165 µl Inkubationspuffer (110 mM Kaliumtartrat, 10 mM TRIS-maleat, pH 7,4, 4 mM MgCl2), 2.) 10 µl Testsubstanz oder Vehikelkontrolle oder blank, 3.) 100 µl synaptische Vesikel. Es schloss sich eine Vorinkubation von 15 min bei 30°C an (nur blank-Ansätze befanden sich hierbei auf Eis). Danach wurde der Uptake durch Zugabe von 25 µl der oben beschriebenen Substratlösung gestartet. Die Reaktion wurde nach 5 min durch Zugabe von 7,0 ml eiskalter 150 mM KCI gestoppt. Anschließend wurden die Proben mit Hilfe des Brandel Cell Harvesters Typ M-24R über einen Membranfilter der Porengröße 0,8 µm abgesaugt und zweimal mit eiskalter 150 mM KCI nachgewaschen. Die Messung erfolgte am beta-Counter nach 15 h in 10 ml Szintillatorflüssigkeit (Filter Count).
Die Affinität der Verbindungen der allgemeinen Formel (I) für den vGLUT1- bzw. vGLUT2-Transporter wurde wie vorstehend beschrieben bestimmt (Pharmakologische Methoden).

Structure (SMILES)	IC50 [nM]	VGLUT (Ratte), Hemmung [%]
O=C(Nc1ccccc1C(=O)O)c1ccc(C(=O)Nc2ccccc2C(=O)O)cc1 [Beispiel 1, 2-(4-(2-Carboxyphenylcarbamoyl)benzamido)benzoesäure]	1290	91
O=C(Nc1ccccc1C(=O)O)c1cccc(C(=O)Nc2ccccc2C(=O)O)c1 [Beispiel 2, 2-(3-(2-Carboxyphenylcarbamoyl)benzamido)benzoesäure]	3350	78
O=C(Nc1ccccc1C(=O)O)c1ccc(Oc2ccc(C(=O)Nc3ccccc3C(=O)O)cc2)cc1 [Beispiel 3, 2-(4-(4-(2-Carboxyphenylcarbamoyl)phenoxy)benzamido)-benzoesäure]	2260	88
O=C(Nc1cc([N+](=O)[O-])ccc1C(=O)O)c1cccc(C(=O)Nc2cc([N+](=O)[O-])ccc2C(=O)O)c1 [Beispiel 4, 2-(3-(2-Carboxy-5-nitrophenylcarbamoyl)benzamido)-4-nitrobenzoesäure]	320	92
O=C(Nc1cc([N+](=O)[O-])ccc1C(=O)O)c1ccc(C(=O)Nc2cc([N+](=O)[O-])ccc2C(=O)O)cc1 [Beispiel 5, 2-(4-(2-Carboxy-5-nitrophenylcarbamoyl)benzamido)-4-nitrobenzoesäure]	860	88
